Literature values in patent US8569299B2, “Prolylcarboxypeptidase inhibitors” (Merck Sharp & Dohme Corp, priority 2010, dated 2013).
Where two headings read alike, the source gives them in different places. Where no end group is shown, it is not given here.

What was measured:
[1] = in vivo
[2] = overnight fasted animals, 2.5 ug
[3] = intracerebroventricular, rats
[4] = systemic administration, obese leptin deficient mice

Compound | weight loss of body weight for drug compared to placebo [1] | also measured
CCN[C@@H](C)Cc1cccc(C(F)(F)F)c1 [dexfenfluramine] | 5%-10% | 
CCCCCCCCCCC[C@@H](C[C@@H]1OC(=O)[C@H]1CCCCCC)OC(=O)[C@H](CC(C)C)NC=O [orlistat] | 5%-10% | 
CC(C)(N)Cc1ccccc1 [phentermine] | 5%-10% | 
CC(C)CC(N(C)C)C1(c2ccc(Cl)cc2)CCC1 (stereo not shown) [sibutramine] | 5%-10% | 
alpha-melanocyte-stimulating hormone (SYSMEHFRWGKPV; ends and bridges not checked; UniProt P01189 138-150, looked up) [α-MSH1-13, peptide hormone derived from POMC, substrate of PRCP] |  | reduction in food intake relative to control animals [2]: 40%
t-butyl carbamate-prolyl prolinal [BPP] |  | overnight food intake [3]: suppression of overnight food intake; overnight food intake [4]: suppression of overnight food intake
